System: 9136 in NCI-H125 cells
Assay: 9136 expression after 4HT induction of p53ER in NCI-H125 cells
Type: cell-based, human
Method: Total RNA was prepared from various human tissues by a single step extraction method using RNA STAT-60 according to the manufacturer's instructions (TelTest, Inc). Each RNA preparation was treated with DNase I (Ambion) at 37° C. for 1 hour. DNAse I treatment was determined to be complete if the sample required at least 38 PCR amplification cycles to reach a threshold level of fluorescence using β-2 microglobulin as an internal amplicon reference. The integrity of the RNA samples following DNase I treatment was confirmed by agarose gel electrophoresis and ethidium bromide staining. After phenol extraction cDNA was prepared from the sample using the SUPERSCRIPT™ Choice System following the manufacturer's instructions (GibcoBRL). A negative control of RNA without reverse transcriptase was mock reverse transcribed for each RNA sample. Human 9136 expression was measured by TaqMan® & quantitative PCR (Perkin Elmer Applied Biosystems) in cDNA prepared from a variety of normal and diseased (e.g., cancerous) human tissues or cell lines. Probes were designed by PrimerExpress software (PE Biosystems) based on the sequence of the human 9136 gene. Each human 9136 gene probe was labeled using FAM (6-carboxyfluorescein), and the β2-microglobulin reference probe was labeled with a different fluorescent dye, VIC. The differential labeling of the target gene and internal reference gene thus enabled measurement in same well. Forward and reverse primers and the probes for both β2-microglobulin and target gene were added to the TaqMan® Universal PCR Master Mix (PE Applied Biosystems). Although the final concentration of primer and probe could vary, each was internally consistent within a given experiment. A typical experiment contained 200 nM of forward and reverse primers plus 100 nM probe for β-2 microglobulin and 600 nM forward and reverse primers plus 200 nM probe for the target gene. TaqMan matrix experiments were carried out on an ABI PRISM 7700 Sequence Detection System (PE Applied Biosystems). The thermal cycler conditions were as follows: hold for 2 min at 50° C. and 10 min at 95° C., followed by two-step PCR for 40 cycles of 95° C. for 15 sec followed by 60° C. for 1 min.
The following method was used to quantitatively calculate human 9136 gene expression in the various tissues relative to β-2 microglobulin expression in the same tissue. The threshold cycle (Ct) value is defined as the cycle at which a statistically significant increase in fluorescence is detected. A lower Ct value is indicative of a higher mRNA concentration. The Ct value of the human 9136 gene is normalized by subtracting the Ct value of the β-2 microglobulin gene to obtain a ΔCt value using the following formula: ΔCt=[…]−Ctβ-2 microglobulin. Expression is then calibrated against a cDNA sample showing a comparatively low level of expression of the human 9136 gene. The ΔCt value for the calibrator sample is then subtracted from ΔCt for each tissue sample according to the following formula: ΔΔCt=ΔCt-sample−ΔCt-calibrator. Relative expression is then calculated using the arithmetic formula given by 2^−ΔΔCt. Relative expression levels of the target human 9136 gene in each of the tissues tested is then graphically represented as discussed in more detail below.
In addition, a study of the 9136 gene expression levels, with or without introduction of p53 expression, was carried out in several carcinoma cell lines. The p53 tumor suppressor gene has been the subject of intense study for a number of years. […] One of those identified genes is 9136, which, as mentioned earlier, is the human ALDH6 gene.

CC/C(=C(\c1ccc(O)cc1)c1ccc(OCCN(C)C)cc1)c1ccccc1 [4HT]
9136 Expression (0 hr post-4HT induction): 5.82 | 9136 Expression (5 min post-4HT induction): 6.29 | 9136 Expression (20 min post-4HT induction): 5.64 | 9136 Expression (1 hr post-4HT induction): 5.60 | 9136 Expression (3 hr post-4HT induction): 5.83 | 9136 Expression (9 hr post-4HT induction): 5.10 | 9136 Expression (24 hr post-4HT induction): 3.1 | 9136 Expression (48 hr post-4HT induction): 3.03

Source: patent US20030100034A1, “9136, a human aldehyde dehydrogenase family member and uses therefor” (Millennium Pharmaceuticals, Inc., priority 2001, published 2003)
